One series has as its system Penicillium expansum. Set-up: key: +=fungicidal. The note with it: cited from earlier work.
A further series relates to Penicillium raistrikii. Set-up: key: +=fungicidal. The note with it: cited from earlier work.
Another series has as its system Suillus tomentosus. As to the kind of experiment: ECM fungal inhibition (Table 1). It is filed as cell-based. Set-up: key: +=fungicidal. Conditions: unpublished results. The text has this: (§1) In addition to laboratory studies, ECM fungi that exist in high elevation sites of the Rocky Mountains and that are also culturable in artificial media are studied. These include: Amanita muscaria, Boletus edulis, Hebeloma crustuliniform, Laccaria bicolor, Laccaria laccata, Lactarius deliciosus, Lactarius rufus, Suillus brevipes, Suillus tomentosus, Rhizopogon occidentalis, and Rhizopogon subcaerulescens. Cultures of these fungi are available from the laboratory of Kropp, Utah State University or are obtained from the American Type Culture Collection. Syringomycin-containing extracts from P. syringae 31R and SnoMax® are prepared by methods used for extraction of cyclic lipodepsipeptides (FIG. 2) (1). Briefly, equal volumes of acidified acetone are added to bacterial cultures and SnoMax® suspensions. The mixtures are centrifuged and evaporated to give the aqueous extracts for testing. SnoMax® itself is suspended in water (0.1 g per ml), and the suspension is tested for fungicidal activities.
(§2) For testing, the linear growth of the various ECM fungi in the presence and absence (controls) of extracts and SnoMax® suspensions are analyzed. Sterile agar strips (5 cm×1.5 cm, cut from fresh agar plates and placed in sterile plastic petri dishes) are inoculated at one end with a 5 mm diameter inoculum plug of the ECM fungus to be tested. Paper disks (1 cm diameter) are soaked in filter-sterilized extracts and SnoMax® suspensions and placed at the opposite end of the agar strip. Control strips with disks soaked in sterile distilled water are also be prepared. The concentrations of the extracts to be used are based on the independent determination of the minimal inhibitory concentrations needed to inhibit the in vitro growth of the yeast R. pilimanae. Two levels of 2-fold dilutions above and below this concentration are used. The plates are sealed with Parafilm and incubated at room temperature for several weeks. The extent of linear growth is measured and compared. The ages of the inoculum cultures are standardized and all inoculum disks are taken from the actively growing colony margin. […]

The test system of another series is Laccaria bicolor. As to the kind of experiment: ECM fungal inhibition (Table 1). In kind it is cell-based. Set-up: key: +=fungicidal. Conditions: unpublished results.
Text: as §1, §2

The test system of another series is Suillus brevipes. As to the kind of experiment: ECM fungal inhibition (Table 1). In kind it is cell-based. Set-up: key: +=fungicidal. The note with it: unpublished results.
Text: as §1, §2

Series [1] concerns Rhodotorula pilimanae. Set-up: key: +=fungicidal. Conditions: references 4, 5; cited from earlier work.
A further series has as its system Candida albicans. Set-up: key: +=fungicidal. Conditions: references 3, 8; cited from earlier work.
The test system of the next series is Microsporium sp. Set-up: key: +=fungicidal. Conditions: cited from earlier work.
A further series relates to Candida tropicalis. Set-up: key: +=fungicidal. Conditions: cited from earlier work.
Another series deals with Rhizoctonia solani. Set-up: key: +=fungicidal. Conditions: cited from earlier work.
The next series has as its system Cryptococcus neoformans. Set-up: key: +=fungicidal. The note with it: cited from earlier work.
A further series has as its system Geotricum citri-aurantii. Set-up: key: +=fungicidal. The note with it: cited from earlier work.
The test system of a further series is Verticillium dahliae. Set-up: key: +=fungicidal. Conditions: cited from earlier work.
The test system of a further series is Fusarium oxysporum. Set-up: key: +=fungicidal. Conditions: cited from earlier work.
The test system of the next series is Thielaviopsis basicola. Set-up: key: +=fungicidal. Conditions: cited from earlier work.
For another series, the system named is Mucor sp. Set-up: key: +=fungicidal. Conditions: cited from earlier work.
The subject of the next series is Saccharomyces cerevisiae. Set-up: key: +=fungicidal. Conditions: references 3, 5, 8; cited from earlier work.
Another series deals with Fusarium solani. Set-up: key: +=fungicidal. Conditions: cited from earlier work.
For another series, the system named is Cladosporium herbarum. Set-up: key: +=fungicidal. The note with it: cited from earlier work.
The subject of the next series is Phytophthora infestans. Set-up: key: +=fungicidal. Conditions: cited from earlier work.
A further series relates to Fusarium moliniforme. Set-up: key: +=fungicidal. Conditions: cited from earlier work.
In the next series the test system is Candida krusei. Set-up: key: +=fungicidal. The note with it: cited from earlier work.
Another series deals with Aureobasidium pullulans. Set-up: key: +=fungicidal. Conditions: cited from earlier work.
The test system of another series is Aspergillus fumigatus. Set-up: key: +=fungicidal. The note with it: cited from earlier work.
Another series has as its system Geotricum candidum. Set-up: key: +=fungicidal. Conditions: references 2, 6, 7, 8; cited from earlier work.
The subject of a further series is Candida rugosa. Set-up: key: +=fungicidal. Conditions: cited from earlier work.
The next series concerns Penicillium radulatum. Set-up: key: +=fungicidal. The note with it: cited from earlier work.
For a further series, the system named is Ustilago maydis. Set-up: key: +=fungicidal. The note with it: cited from earlier work.
A further series relates to Candida parapsilosis. Set-up: key: +=fungicidal. Conditions: cited from earlier work.
The next series concerns Penicillium digitatum. Set-up: key: +=fungicidal. Conditions: cited from earlier work.
Another series concerns Aspergillus flavus. Set-up: key: +=fungicidal. The note with it: reference 1; cited from earlier work.
A further series has as its system Alternaria alternate. Set-up: key: +=fungicidal. The note with it: cited from earlier work.
The next series relates to Botrytis cinera. Set-up: key: +=fungicidal. The note with it: cited from earlier work.
Another series relates to Aspergillus niger. Set-up: key: +=fungicidal. The note with it: cited from earlier work.
For the next series, the system named is Candida kefyr. Set-up: key: +=fungicidal. Conditions: cited from earlier work.
A further series deals with Rhizopus sp. Set-up: key: +=fungicidal. Conditions: cited from earlier work.
The test system of the next series is Trichoderma atroviridae. Set-up: key: +=fungicidal. Conditions: cited from earlier work.
The test system of a further series is Ceratocystis fimbriata. Set-up: key: +=fungicidal. Conditions: cited from earlier work.
The next series deals with Trichophyton sp. Set-up: key: +=fungicidal. The note with it: cited from earlier work.
The test system of series [2] is Rhodotorula pilimanae. As to the kind of experiment: Fungal inhibition, spot test on lawn (Table 1, FIG. 1-3). The note with it: HPLC peak material purified from P. syringae 31R cultures. It is filed as cell-based. How it is done: Ten μL quantities of undiluted filtrate (1) and multiple aliquots of 2-fold dilutions of the filtrate (2-9) were applied to potato dextrose agar plates with freshly streaked R. pilimanae. The plate was incubated for 1 day at 28° C. The cleared spots show fungicidal growth inhibition.
Ten μL quantities of undiluted (1) and 2^−1 (2), 2^−2 (3) and 2^−3 (4) dilutions of the extracts were applied to potato dextrose agar plates with freshly streaked R. pilimanae. The plate was incubated for 1 day at 28° C. The cleared spots show fungicidal growth inhibition.
SnoMax® (1 g) was suspended in 5 ml H2O. One ml was mixed with 1 ml of acidified acetone, centrifuged, and the supernatant was recovered. An aliquot (200 μL) of the extract was evaporated to near dryness at 40° C. H2O (100 μL) was added and the mixture evenly suspended. Ten μL each of the SnoMax® suspension, extract, and H2O control were spotted onto a fresh lawn of R. pilimanae on PDA medium and incubated at 28° C. for 24 h.
SnoMax® was obtained from the snow making operation of a local Utah ski resort. One gram was suspended in water and an aliquot was extracted with acidified acetone. The extract was dried, suspended in water, and the solutions were tested for inhibitory activity against R. pilimanae grown as a lawn on potato dextrose agar medium (1) (FIG. 3). This assay is determines syringomycin production.

In series [3] the test system is Rhodotorula pilimanae. As to the kind of experiment: Effect of pH on the antifungal activity of Snomax suspensions (FIG. 4). It is filed as cell-based. Conditions: R. pilimanae lawn, 28° C., 36 hours. How it is done:
SnoMax was mixed and suspended with water for 1 hour at room temperature, the pHs were adjusted to 6, 8, or 10 by titrating with dilute solutions of NaOH and HCl, and the suspensions incubated at the final pHs for 1 hour at room temperature. The suspensions were then freeze dried. The freeze dried powders were extracted with acidified acetone, centrifuged, and the supernatant fractions recovered. Acetone was evaporated off at 45° C. and the residues serial diluted (2 fold) in water. Ten microliter aliquots of 2^−1 (a), 2^−2 (b), and 2^−3 (c) dilutions were deposited on a freshly prepared lawn of Rhodotorula pilimanae onto potato-dextrose-casamino acids (PDA-CA) agar medium prepared in Petri dishes. A 10 microliter aliquot of pure syringomycin E (1 mg per ml) was also applied (d). The Petri dishes were incubated at 28° C. for 36 hours. Result: pH 8 and 10 treatments eliminated the antifungal activities of snomax suspension and of syringomycin E, the latter serving as positive control.

Results on 2 substances are retold here after US20060248793A1, “Method for making fungi compatible artificial snow” (priority 2005, published 2006).

With syringomycin [SR], the Fungal species inhibited result in the series on Penicillium expansum is listed as “+”; in the series with Penicillium raistrikii, “+”; in the series with Suillus tomentosus it was “+”; in the series with Laccaria bicolor, “+”; in the series with Suillus brevipes, “+”; in the series with Rhodotorula pilimanae [1] it was “^c+”. Besides, the Fungal species inhibited result in the series on Candida albicans, with Microsporium sp., with Candida tropicalis, in the series with Rhizoctonia solani, with Cryptococcus neoformans and in the series on Geotricum citri-aurantii was “+” in each case. For the same substance, the Fungal species inhibited entry with Verticillium dahliae, with Fusarium oxysporum, with Thielaviopsis basicola, in the series with Mucor sp., in the series on Saccharomyces cerevisiae and in the series on Fusarium solani was “+” in each case. Further, the Fungal species inhibited result in the series with Cladosporium herbarum, with Phytophthora infestans, in the series with Fusarium moliniforme, in the series on Candida krusei, in the series with Aureobasidium pullulans and with Aspergillus fumigatus was “+” throughout. In addition, the Fungal species inhibited entry in the series on Geotricum candidum, with Candida rugosa, in the series on Penicillium radulatum, in the series on Ustilago maydis, in the series on Candida parapsilosis and with Penicillium digitatum was “+” each time. Also, the Fungal species inhibited entry with Aspergillus flavus, in the series on Alternaria alternate, in the series on Botrytis cinera, in the series with Aspergillus niger, with Candida kefyr and with Rhizopus sp. was “+” each time. Further, the Fungal species inhibited result with Trichoderma atroviridae, in the series with Ceratocystis fimbriata and in the series with Trichophyton sp. was “+” throughout.
For the substance syringomycin E, in the series on Rhodotorula pilimanae [2], the “growth inhibitory activity against R. pilimanae, other yeasts and filamentous fungi” value was “growth inhibitory activity”. Besides, the “antifungal activity after pH treatment” value in the series on Rhodotorula pilimanae [3] (pH 8, 1 hour at room temperature) is reported as “eliminated”; in the series on Rhodotorula pilimanae [3] (pH 10, 1 hour at room temperature) it was “eliminated”.
